Assay results taken from ChEMBL document CHEMBL1201862, “PubChem BioAssay data set” (2004).
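Tested at 5 concentrations; 48 h exposure; 96-well plates; endpoints linearly interpolated, else capped at highest concentration. Here, GI50 denotes the concentration required for 50% inhibition of growth.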 Activity calls are given as the source filed them. Cut-off read from the data, not from the text of the source: active = GI50 up to about 1.1 µM and inactive = higher.

How the values were obtained:
Experiment in all cases: DTP human tumour cell line panel, 48 h
Malme-3M = tested on: Malme-3M
NCI-H522 = tested on: NCI-H522
ACHN = tested on: ACHN
HCT-15 = tested on: HCT-15
MCF7 = tested on: MCF7
HCT-116 = tested on: HCT-116
NCI-H226 = tested on: NCI-H226
MOLT-4 = tested on: MOLT-4
SR = tested on: SR
CAKI-1 = tested on: CAKI-1
PC-3 = tested on: PC-3
A498 = tested on: A498
NCI/ADR-RES = tested on: NCI/ADR-RES
K562 = tested on: K562
SF-539 = tested on: SF-539
COLO 205 = tested on: COLO 205
UO-31 = tested on: UO-31
KM12 = tested on: KM12
SK-OV-3 = tested on: SK-OV-3

| SMILES | GI50 (Malme-3M) | GI50 (NCI-H522) | GI50 (ACHN) | GI50 (HCT-15) [µM] | GI50 (MCF7) | GI50 (HCT-116) | GI50 (NCI-H226) | GI50 (MOLT-4) | GI50 (SR) | GI50 (CAKI-1) | GI50 (PC-3) | GI50 (A498) | GI50 (NCI/ADR-RES) | GI50 (K562) | GI50 (SF-539) | GI50 (COLO 205) | GI50 (UO-31) | GI50 (KM12) | GI50 (SK-OV-3) |
| --- | --- | --- | --- | --- | --- | --- | --- | --- | --- | --- | --- | --- | --- | --- | --- | --- | --- | --- | --- |
| O=c1cc(O)c2c(O)cc(O)cc2o1 | > 100 µM (inactive) | > 100 µM (inactive) | > 100 µM (inactive) | > 100 | > 100 µM (inactive) | > 100 µM (inactive) | > 100 µM (inactive) | > 100 µM (inactive) | > 100 µM (inactive) | > 100 µM (inactive) | > 100 µM (inactive) | > 100 µM (inactive) | > 100 µM (inactive) | > 100 µM (inactive) | > 100 µM (inactive) | > 100 µM (inactive) | – | – | – |
| c1ccc2sc(SCN(C3CCCCC3)C3CCCCC3)nc2c1 | > 100 µM (inactive) | > 100 µM (inactive) | > 100 µM (inactive) | > 100 | – | – | > 100 µM (inactive) | > 100 µM (inactive) | > 100 µM (inactive) | > 100 µM (inactive) | > 100 µM (inactive) | > 100 µM (inactive) | > 100 µM (inactive) | > 100 µM (inactive) | – | – | > 100 µM (inactive) | > 100 µM (inactive) | – |
| CCO/C=N\C1=C(C#N)SC2=N/C(=C\c3ccc(OC)cc3)C(=O)N21 | > 100 µM (inactive) | 79.8 µM (inactive) | 94.2 µM (inactive) | 85.9 | > 100 µM (inactive) | > 100 µM (inactive) | > 100 µM (inactive) | > 100 µM (inactive) | 82.8 µM (inactive) | > 100 µM (inactive) | – | > 100 µM (inactive) | > 100 µM (inactive) | 25.9 µM (inactive) | > 100 µM (inactive) | > 100 µM (inactive) | > 100 µM (inactive) | > 100 µM (inactive) | 96.8 µM (inactive) |
| CCCCCc1cc2c(cc1O)CC[C@@H]1[C@@H]2CC[C@]2(C)[C@@H](O)CC[C@@H]12 | 19.1 µM (inactive) | 18.8 µM (inactive) | 14.1 µM (inactive) | 15.9 | 16.4 µM (inactive) | 17.3 µM (inactive) | 14.5 µM (inactive) | 24.3 µM (inactive) | – | 21.5 µM (inactive) | 16.6 µM (inactive) | 21.4 µM (inactive) | 18.9 µM (inactive) | 16.7 µM (inactive) | 23.8 µM (inactive) | 16.1 µM (inactive) | 13.9 µM (inactive) | 10.9 µM (inactive) | 21.8 µM (inactive) |
| CCc1ccccc1/N=N/C(=O)NNc1ccccc1CC | 17.6 µM (inactive) | 19.7 µM (inactive) | 19.8 µM (inactive) | 18.5 | 19.2 µM (inactive) | 15.3 µM (inactive) | 17.5 µM (inactive) | 19.4 µM (inactive) | 23.2 µM (inactive) | 27.9 µM (inactive) | 16.4 µM (inactive) | 18.7 µM (inactive) | – | 26.1 µM (inactive) | – | – | 17.3 µM (inactive) | – | – |
| N=c1c2c(=S)n(-c3ccccc3)c(=S)n(-c3ccccc3)c2nc(SCCN2CCCC2)n1-c1ccccc1 | 2.17 µM (inactive) | 1.72 µM (inactive) | 1.77 µM (inactive) | 1.6 | – | 2.09 µM (inactive) | 7.59 µM (inactive) | 0.08 µM (active) | 0.136 µM (active) | 1.56 µM (inactive) | 1.75 µM (inactive) | 11 µM (inactive) | 6.44 µM (inactive) | 0.762 µM (active) | 5.02 µM (inactive) | 1.55 µM (inactive) | – | 5.2 µM (inactive) | 12.6 µM (inactive) |
| C=CCNC(=S)N/N=C1\C(=O)N(CN2CCOCC2)c2ccc([N+](=O)[O-])cc21 | > 100 µM (inactive) | 41.4 µM (inactive) | 5.3 µM (inactive) | 5.04 | 33.3 µM (inactive) | 6.46 µM (inactive) | > 100 µM (inactive) | 5.98 µM (inactive) | – | 5.19 µM (inactive) | 24 µM (inactive) | 7.52 µM (inactive) | 3.74 µM (inactive) | 18.9 µM (inactive) | 51.6 µM (inactive) | 34.4 µM (inactive) | 6.18 µM (inactive) | 28.3 µM (inactive) | 36.5 µM (inactive) |
| COC(=O)C(Cc1c(C2Nc3ccccc3C2CC(NC(C)=O)C(=O)OC)[nH]c2ccccc12)NC(C)=O (centres undefined) | > 100 µM (inactive) | > 100 µM (inactive) | > 100 µM (inactive) | > 100 | – | > 100 µM (inactive) | > 100 µM (inactive) | > 100 µM (inactive) | – | > 100 µM (inactive) | > 100 µM (inactive) | > 100 µM (inactive) | > 100 µM (inactive) | > 100 µM (inactive) | > 100 µM (inactive) | > 100 µM (inactive) | > 100 µM (inactive) | > 100 µM (inactive) | > 100 µM (inactive) |
| O=[N+]([O-])c1ccc(Cc2nc3cc4ccccc4cc3[nH]2)cc1C(F)(F)F | 9.79 µM (inactive) | 20.4 µM (inactive) | 15.8 µM (inactive) | 12 | 15.5 µM (inactive) | 13.9 µM (inactive) | – | 13.1 µM (inactive) | – | 11.6 µM (inactive) | 15.4 µM (inactive) | 17.7 µM (inactive) | 11.4 µM (inactive) | 6.56 µM (inactive) | 16.2 µM (inactive) | 4.32 µM (inactive) | 15.8 µM (inactive) | 13.4 µM (inactive) | 13.5 µM (inactive) |
